# Test results as given in US10899700B2, “Process for the separation of long chain amino acids and dibasic acids” (Vitaworks IP, LLC, priority 2017, dated 2021).
# Columns and labels:
# [1] = Solubility of sodium salts in water, ethanol and aqueous ethanol (FIG. 8); assay type: physicochemical; conditions: for solubility change of the sodium salt in aqueous ethanol (in words): aqueous ethanol versus water or ethanol; for solubility of the sodium salt in water and in ethanol (in words): both water and ethanol
# Source text: FIG. 8. Solubility of 11-aminoundecanoic acid and dodecanedioic acid in aqueous ethanol solution of 2 M sodium hydroxide at different concentration of ethanol.
# For example, FIG. 8 illustrates the solubility change of sodium salts of 11-aminoundecanoic acid and dodecanedioic acid in aqueous ethanol. […] This surprising finding renders the separation of these two salts possible.
# [2] = Phase separation of hexylamine-water azeotrope distillate upon cooling; assay type: physicochemical; conditions: aqueous phase after cooling and phase separation
# Source text: For the production of 11-aminoundecanoic acid and dodecanedioic acid, hexylamine is one of the main products. Hexylamine is found to form an azeotrope with water and can be separated from the solution by azeotropic distillation. Upon cooling, the distillate separates into an upper phase of nearly pure hexylamine and an aqueous phase containing not more than 2% of hexylamine. Hexylamine can also be separated from the mixture by steam distillation or steam stripping. Complete separation is accomplished when the distillate at the overhead becomes nearly neutral at a pH of 7-8.
# [3] = Solubility of alkali salts in sodium hydroxide solution (FIG. 6, FIG. 7); assay type: physicochemical; conditions: 2 M sodium hydroxide, about 50° C.
# Procedure: FIG. 6. Solubility curve of 11-aminoundecanoic acid in water at neutral pH, 1 M solution of sulfuric acid, and 2 M solution of sodium hydroxide.
# FIG. 7. Solubility curve of heptanoic acid in a 6 M solution of sodium hydroxide and dodecanedioic acid in a 3 M solution of sodium hydroxide.
# When the hydrolysis reaction of mixed amide derivatives from the Beckmann rearrangement is performed in the presence of alkali hydroxide, main products other than alkylamine are obtained in the form of their alkali salts. It was observed that a starting suspension of the mixed amide derivatives in a solution of alkali hydroxide is changed to a clear solution at a temperature of 60° C. or above after the hydrolysis.
# Since long chain amino acid, e.g., 11-aminoundecanoic acid, has relatively constant solubility, evaporative concentration of the mother liquor will result in the crystallization of inorganic salt, in particular, sodium sulfate, along with valuable long chain amino acid. […] This finding greatly facilitates the separation of inorganic salt, most preferably, sodium sulfate, and the recovery of long chain amino acids.
# In an alkali hydroxide hydrolysis of the mixed amide derivatives, two mole equivalents of alkali hydroxide are required, but more than two equivalents, usually between 2.5 to 3 equivalents of alkali hydroxide are used to achieve a complete hydrolysis. […]
# physchem = conditions: aqueous buffer
solubility change of the sodium salt in aqueous ethanol (in words) [1],solubility of the sodium salt in water and in ethanol (in words) [1],hexylamine content of the aqueous phase of the cooled azeotropic distillate [2],solubility of the alkali salt in 2 M solution of sodium hydroxide (in words) [3],solubility (physchem) [mg/mL],SMILES
remains unchanged,nearly insoluble,–,–,–,O=C(O)CCCCCCCCCCC(=O)O [dodecanedioic acid]
–,–,not more than 2%,–,–,CCCCCCN [hexylamine]
drastically increases the solubility,nearly insoluble,–,freely soluble,–,NCCCCCCCCCCC(=O)O [11-aminoundecanoic acid]
–,–,–,–,> 600,O=C(O)CCCCCCCC(=O)O [azelaic acid]
